Measured values published in US20190111040A1, “IN VIVO AMELIORATION OF ENDOGENOUS ANTI-TUMOR AUTOANTIBODIES TARGETING SURFACE TUMOR ANTIGENS VIA LOW-DOSE P4N” (THE JOHNS HOPKINS UNIVERSITY, priority 2016, published 2019).
Where a name gives a salt, the structure may show the parent alone.

Assays:
[1] = system: CT26 tumors; assay: P4N in B cell or CD8+ T cell depleted mice bearing CT26 tumors; type: in vivo, BALB/c mice; details: 5 mg/kg intratumoral every week
Protocol: FIGS. 1A-1C illustrate the antitumor effects of low dose P4N in immune competent and deficient mice. (A) BALB/c (n=10/group) and nude mice (n=10/group) bearing CT26 tumors were treated with a single intratumoral injection of 2.5 or 5 mg/kg of P4N N. (B) B cell or CD8+ T cell depleted BALB/c mice (n=9/group) bearing CT26 tumors were treated with 5 mg/kg of P4N by intratumoral injection every week. Tumor volumes were measured every 2 days after treatments. Significant differences between the P4N groups and the PBS group were identified and labeled with *:p<0.05 and **:p<0.01. (C) Immunohistochemistry staining was used to monitor the infiltrations of macrophage (F4/80), DC (CD11c), T (CD3) and B cells (CD20) in the tumor area after a single intratumoral injection of PBS or 5 mg/kg of P4N. The photos are representative of the mice sacrificed on day 7 after the treatments.
P4N treatments in vivo. BALB/c or BALB/c/nu mice (6 week old) were inoculated subcutaneously with 1×10^6 CT-26 cells in 100 μl PBS. When the average tumor mass reached 50 mm^3, the animals were treated with 2.5 mg/kg or 5 mg/kg of P4N in one intratumoral injection. Subsequently, the tumor volumes were measured using a caliper every 2 days, and the volumes were calculated using the following formula: volume (mm^3)=length×width×height. Before sacrifice, the sera of the mice were collected for experimental use. […]

[2] = In vivo effects of P4N on antibody production and B cell differentiation (EGFP immunization); parameters: species or system BALB/c mice
Protocol: In vivo effects of P4N on antibody production and B cell differentiation. Mice were immunized and boosted with 100 μg EGFP in 100 μl of PBS by intraperitoneal injection once every week and simultaneously treated with or without 5 mg/kg P4N once or three times per week. Blood samples were collected from the retro-orbital plexus of the mice every week. The titers of anti-EGFP antibodies in sera were measured by enzyme-linked immunosorbent assay (ELISA). Briefly, each well of a microtiter plate (Nunc, Wiesbaden, Germany) was coated with 100 ng of rEGFP in 100 μl of PBS. The sera were 6400× diluted by PBS and added to the antigen-coated wells, and their titers were measured as described above. The isotypes of anti-EGFP antibodies in sera were also measured as described previously.
The splenocytes of P4N-treated or untreated mice were harvested and probed with anti-CD19-FITC, anti-CD23-APC, anti-CD38-APC, anti-CD27-APC, anti-CD138-APC, anti-CD5-PE or anti-CD1d-Alexa 647 (BioLegend) antibodies and analyzed by flow cytometry (BD Biosciences). The definitions of the cell types were as described above, except for memory B cells (CD19+CD27+) and plasma cells (CD19+CD138+). The indices of different types of B cell proliferation were calculated as follows: (the number of splenocytes×the percentage of each B cell population in treated splenocytes)/(the number of splenocytes×the percentage of each B cell population in untreated splenocytes).

[3] = system: CT26 tumors; assay: P4N treatments in vivo, CT-26 tumors in BALB/c mice; details: one intratumoral injection of 2.5 mg/kg or 5 mg/kg
Protocol: P4N treatments in vivo. BALB/c or BALB/c/nu mice (6 week old) were inoculated subcutaneously with 1×10^6 CT-26 cells in 100 μl PBS. When the average tumor mass reached 50 mm^3, the animals were treated with 2.5 mg/kg or 5 mg/kg of P4N in one intratumoral injection. Subsequently, the tumor volumes were measured using a caliper every 2 days, and the volumes were calculated using the following formula: volume (mm^3)=length×width×height. Before sacrifice, the sera of the mice were collected for experimental use.

[4] = system: PBMCs; assay: Cytokine and chemokine profile of P4N treated PBMC, Bio-Plex; type: cell-based, human; details: 3 μM P4N
Protocol: PBMCs isolated from 7 healthy donors were treated with 3 μM of P4N for 48 h. Supernatants were collected and analyzed for human cytokines using the Bio-Plex assay. Shown are the changed results of the production of 27 human cytokines when PBMCs were treated with P4N in three independent experiments. The levels of IL-4, IL-5, IL-7, IL-9, Eotaxin and FGF were undetectable.
The effects of P4N on the profile of cytokine expression. PBMCs (2×10^6 cells/ml) from seven healthy individuals were seeded in each well of a 24-well microplate and treated with 3 μM of P4N for 24 h. Cell supernatants were collected for analysis of cytokine levels by a cytokine multiplex assay using the Bio-Plex Pro Human Cytokine Standard Group I 27-Plex, following the manufacturer's protocol (Bio-Rad, Hercules, Calif.). The change levels of cytokine were calculated as follows: Change level=(value of the P4N-treated cells)/(value of the untreated cells)×100%.

[5] = system: THP-1 cells; assay: Gene expression profiling of P4N treated THP-1 cells, cDNA microarray; type: cell-based; details: THP-1 cells following P4N treatment
Protocol: Gene expression profiling and analysis. Amplification and labeling of RNA was performed with the Illumina®TotalPrep RNA Amplification Kit from Life Technologies (Ambion, Applied Biosystems, Foster City, Calif.) using 150 ng of RNA per sample. Labeled RNA (750 ng) was hybridized to Illumina HT-12 v4 Expression BeadChips (˜48,000 probes) and processed according to the manufacturer's protocol. Expression data underwent quality control and normalization by GenomeStudio (Illumina, San Diego, Calif.). Genes differentially expressed in the cells treated with P4N relative to the untreated cells were identified, with special emphasis given to genes involved in cytokine-cytokine receptor interaction (KEGG pathway). […] The identified genes were subjected to the Database for Annotation, Visualization and Integrated Discovery (DAVID) (david.abcc.ncifcrf.gov/) for Gene Ontology (GO) and KEGG pathway enrichment analysis. A P-value <0.05 was set as threshold of enrichment analysis.

## C[C@H](Cc1ccc(OCCN2CCCCC2)c(OCCN2CCCCC2)c1)[C@@H](C)Cc1ccc(OCCN2CCCCC2)c(OCCN2CCCCC2)c1 [P4N, meso-2,3-dimethyl-1,4-bis(3,4-[2-(piperidino)ethoxyphenyl])butane tetrakishydrochloride salt]
[1]; B cell depleted
  P4N-induced tumor inhibition under B cell-depletion: abolished the effect of P4N-induced tumor inhibition
[1]; CD8+ T cell depleted
  P4N-induced tumor inhibition under CD8+ T cell-depletion: only attenuated the effect of P4N-induced tumor inhibition
[2]; 5 mg/kg P4N once or three times a week with EGFP
  total specific anti-EGFP Ig production: dramatically enhanced
[2]; compared to EGFP immunization
  B cell differentiation to plasma cells: greatly stimulated
[2]; immunization with P4N
  IgG1, IgG2b and IgA production: significantly increased
[3]
  growth of CT26 tumors: significantly inhibited
[4]
  levels of pro-inflammatory cytokines (TNF-α, IL-1P and IL-6) and chemokines (IL-8, IP-10, MIP-1α, MIP-1β and RANTES): significantly increased
[4]; 48 h
  levels of IL-4, IL-5, IL-7, IL-9, Eotaxin and FGF: undetectable
[5]
  up-regulated genes of cytokine-cytokine interaction (KEGG pathway): 26
  up-regulated genes of growth factor activity (GO: 0008083): 10
